Data: patent US20100179176A1, “V3 ANTAGONISTS FOR THE TREATMENT OR PREVENTION OF CHRONIC PAIN” (N.V. Organon, priority 2007, published 2010)

Key:
[1] = system: mechanical allodynia induced by spinal nerve ligation in rats; test: Rat (Chung) model of neuropathic pain, von Frey paw withdrawal threshold; type: in vivo; details: for Withdrawal threshold (g) at peak effect: spinal nerve ligation; for Effect on mechanical allodynia (in words): oral administration, three doses; for ED50: po, read-out: ED50 at peak effect (dose at which allodynia is reversed by 50%)
Protocol: In this model, mechanical allodynia is induced by tight ligation of the left L5 spinal nerve.
Male Wistar rats (150-175 g body weight at time of surgery) were employed in the study. Rats were placed on an elevated (˜40 cm) mesh floor in perspex boxes and the rats' withdrawal threshold to a mechanical stimulus (calibrated von Frey filaments) was measured using filaments of increasing force (2.6-167 mN). The von Frey filaments were applied to the plantar surface of the paw and the thershold response was determined using the up and down method. A positive response was noted if the paw was sharply withdrawn. A cut-off of 15 g was selected as the upper limit for testing. Following baseline measurements each animal was anaesthetised and the L5 spinal nerve tightly ligated. The animals were allowed to recover from the surgery for a period of at least three days. On the day of drug administration the paw withdrawal thresholds were re-measured (0 min). Immediately after this reading, the rats were dosed orally with vehicle or test compound. Readings were then made at intervals of 30, 60, 120, 180 and 240 min after compound administration.
Data were expressed as mean±s.e.m. The time of maximum effect for each animal in the top dose group was determined and these values averaged to calculate the mean time of maximum effect. For analytical purposes the time of maximum effect, tmax was defined as the time point closest to this averaged value. Data at tmax were compared between groups using the Kruskal-Wallis one-way analysis of variance, a non-parametric statistical test. Each of the treatment groups were then compared against the vehicle group, using the non-parametric Dunn's test. The ED50 (dose at which allodynia is reversed by 50%) value was also calculated at tmax using non linear regression (sigmoidal dose response; variable slope) with constants of 0 and 15 g (cut-off) for the bottom and top, respectively (XLFit software).

[2] = system: tail flick latency in mice; test: Mouse tail flick assay of acute thermal pain; type: in vivo; details: for Tail Flick Latency: mouse; for Effect on tail flick latencies (in words): oral administration, three doses, mouse, 20, 40 and 60 min post administration
Protocol: The tail flick test is used to evaluate the antinociceptive activity of test compounds in mice. Animals are placed on the tail flick apparatus and their tails exposed to a focused beam of radiant heat. The mice react to the noxious thermal stimulus by flicking their tail away from the heat source. The time taken for these responses to occur is measured (latency; s).
Experiments were performed using male ICR mice weighing (25-32 g). In brief, animals were held in place on the tail flick apparatus (Ugo Basile, Italy) by means of a perspex restrainer and their tail was positioned over the heat source. The latency to flick the tail from the radiant heat source focussed 2.5 cm from the tip was determined before (baseline readings) and at regular intervals after administration of the vehicle or test compounds (compound 1, 5.6-55.6 μmol/kg p.o.; compound 2, 5.3-52.6 μmol/kg p.o.). A 12 seconds cut-off was employed to prevent tissue damage.
Data are expressed as mean±s.e.m. and compared between groups using the Kruskal-Wallis one-way analysis of variance, a non-parametric statistical test. If statistical significance (P<0.05) is observed with this test, the vehicle group and each of the treatment groups is compared using the non-parametric Dunn's test.

[3] = system: mechanical hyperalgesia induced by complete Freund's adjuvant in rats; test: Rat CFA model of inflammatory pain, Randall-Sellito paw withdrawal threshold; type: in vivo; details: for % Attenuation of hyperalgesia (peak effect): 7 days after CFA, peak effect 30 min
Protocol: In this model, inflammation is induced by subcutaneous injection of complete Freund's adjuvant (CFA) into the hind paw. The associated mechanical hyperalgesia is quantified by measuring the reduction in paw withdrawal threshold (PWT) to a mechanical compression of the paw.
Experiments were in male Wistar rats weighing (130-180 g). In brief, the rats' paw withdrawal threshold (PWT) to a mechanical compression of the hind paw was measured (baseline reading) using a Randall-Sellito apparatus (Ugo Basile). A cut-off of 200 g was employed to minimise tissue damage to the paw. The animals were then lightly anaesthetised with isoflurane (1-3%) and CFA (0.1 ml·paw^−1) injected subcutaneously (s.c.) into the plantar surface of the left hind paw. The animals were then returned to their home cage and left for the inflammation to develop.
Seven days after CFA injection, PWT's were re-measured (0 min) and immediately after this reading, rats were dosed orally with either vehicle or compound 2 (3-30 mg/kg). Readings were then made at 30 min and 2 h post drug administration.
Data were plotted as mean±s.e.m. and compared between groups using the Kruskal-Wallis one-way analysis of variance, a non-parametric statistical test. […] The percent attenuation of mechanical hyperalgesia is calculated at time of peak effect (tmax)

[4] = system: tolerance development to the analgesic activity of morphine; details: Database WPI, Derwent abstract; cited from earlier work

COc1cc(-c2nc3ccc(-c4cccc(CN(C)C)c4)cc3c(=O)n2CC(=O)NC(C)C)ccc1F [Compound 1, 2-[6-(3-Dimethylaminomethylphenyl)-2-(4-fluoro-3-methoxyphenyl)-4-oxo-4H-quinazolin-3-yl]-N-isopropylacetamide]
Withdrawal threshold (g) at peak effect ([1]; 5.6 μmol/kg p.o., peak effect 120 min): 4.6 ± 0.6 g
Withdrawal threshold (g) at peak effect ([1]; 18.6 μmol/kg p.o., peak effect 120 min): 5.6 ± 1.1 g
Withdrawal threshold (g) at peak effect ([1]; 55.6 μmol/kg p.o., peak effect 120 min): 11.4 ± 0.7 g
Effect on mechanical allodynia (in words) [1]: reversed mechanical allodynia in a dose-dependent fashion
Time of peak anti-allodynic effect post drug administration ([1]; p.o.): 120 min
ED50 ([1]; at tmax): 21.2 µmol/kg
Tail Flick Latency ([2]; 5.6 μmol/kg p.o., 20 min post dose): 3.5 ± 0.4 s
Tail Flick Latency ([2]; 5.6 μmol/kg p.o., 40 min post dose): 3.4 ± 0.2 s
Tail Flick Latency ([2]; 5.6 μmol/kg p.o., 60 min post dose): 3.5 ± 0.2 s
Tail Flick Latency ([2]; 18.6 μmol/kg p.o., 20 min post dose): 3.4 ± 0.3 s
Tail Flick Latency ([2]; 18.6 μmol/kg p.o., 40 min post dose): 3.5 ± 0.2 s
Tail Flick Latency ([2]; 18.6 μmol/kg p.o., 60 min post dose): 3.1 ± 0.2 s
Tail Flick Latency ([2]; 55.6 μmol/kg p.o., 20 min post dose): 3.3 ± 0.3 s
Tail Flick Latency ([2]; 55.6 μmol/kg p.o., 40 min post dose): 3.5 ± 0.3 s
Tail Flick Latency ([2]; 55.6 μmol/kg p.o., 60 min post dose): 3.3 ± 0.2 s
Effect on tail flick latencies (in words) [2]: had no effect on tail flick latencies

CC(C)NC(=O)Cn1c(-c2cccc(Cl)c2)nc2ccc(OCCCN3CCCCC3)cc2c1=O [Compound 2]
Withdrawal threshold (g) at peak effect ([1]; 5.3 μmol/kg p.o., peak effect 30 min): 4.8 ± 1.0 g
Withdrawal threshold (g) at peak effect ([1]; 17.3 μmol/kg p.o., peak effect 30 min): 6.7 ± 1.1 g
Withdrawal threshold (g) at peak effect ([1]; 52.6 μmol/kg p.o., peak effect 30 min): 9.8 ± 1.8 g
Effect on mechanical allodynia (in words) [1]: reversed mechanical allodynia in a dose-dependent fashion
Time of peak anti-allodynic effect post drug administration ([1]; p.o.): 30 min
ED50 at peak effect (dose at which allodynia is reversed by 50%) ([1]; p.o., at tmax): 21.0 µmol/kg
Tail Flick Latency ([2]; 5.3 μmol/kg p.o., 20 min post dose): 3.4 ± 0.2 s
Tail Flick Latency ([2]; 5.3 μmol/kg p.o., 40 min post dose): 3.7 ± 0.2 s
Tail Flick Latency ([2]; 5.3 μmol/kg p.o., 60 min post dose): 3.6 ± 0.1 s
Tail Flick Latency ([2]; 17.3 μmol/kg p.o., 20 min post dose): 3.6 ± 0.1 s
Tail Flick Latency ([2]; 17.3 μmol/kg p.o., 40 min post dose): 3.6 ± 0.1 s
Tail Flick Latency ([2]; 17.3 μmol/kg p.o., 60 min post dose): 3.1 ± 0.1 s
Tail Flick Latency ([2]; 52.6 μmol/kg p.o., 20 min post dose): 3.5 ± 0.2 s
Tail Flick Latency ([2]; 52.6 μmol/kg p.o., 40 min post dose): 3.5 ± 0.2 s
Tail Flick Latency ([2]; 52.6 μmol/kg p.o., 60 min post dose): 3.2 ± 0.2 s
Effect on tail flick latencies (in words) [2]: had no effect on tail flick latencies
% Attenuation of hyperalgesia (peak effect) ([3]; 5.7 μmol/kg p.o.): 31.5 ± 9.4%
% Attenuation of hyperalgesia (peak effect) ([3]; 18.9 μmol/kg p.o.): 43.1 ± 8.6 %
% Attenuation of hyperalgesia (peak effect) ([3]; 56.6 μmol/kg p.o.): 84.4 ± 12.0 %
Effect on mechanical hyperalgesia induced by CFA (in words) ([3]; oral administration 5.7, 18.9 or 56.6 μmol/kg): reversed mechanical hyperalgesia induced by CFA in a dose-dependent fashion
ED50 at peak effect (mechanical hyperalgesia) ([3]; p.o., CFA): 19.2 µmol/kg
Time of peak anti-algesic effect post drug administration ([3]; p.o., CFA): 30 min

COc1ccc(S(=O)(=O)N2C(=O)[C@@](c3ccccc3OC)(N3C[C@H](O)C[C@H]3C(=O)N(C)C)c3cc(Cl)ccc32)c(OC)c1 [Compound 3, reference compound]
Effect on tolerance development to the analgesic activity of morphine (in words) [4]: inhibits the tolerance development to the analgesic activity of morphine
Withdrawal threshold (g) at peak effect ([1]; 3 μmol/kg p.o., peak effect 180 min): 5.0 ± 1.0 g
Withdrawal threshold (g) at peak effect ([1]; 10 μmol/kg p.o., peak effect 180 min): 6.9 ± 1.3 g
Withdrawal threshold (g) at peak effect ([1]; 30 μmol/kg p.o., peak effect 180 min): 10.1 ± 1.4 g
Effect on mechanical allodynia (in words) [1]: reversed mechanical allodynia in a dose-dependent fashion
Time of peak anti-allodynic effect post drug administration ([1]; p.o.): 180 min
ED50 ([1]; at tmax): 10.6 µmol/kg
